# Measurements reported in US12403121B2, “Anticancer rocaglamide derivatives” (priority 2018, dated 2025).
# What was measured:
# [1] = tested on: panel of MPNST, schwannoma, and meningioma cell lines; assay: Side-by-side growth inhibition comparison with silvestrol in a cell line panel; format: cell-based; settings: panel of MPNST, schwannoma, meningioma cell lines
# Procedure: Actively-growing cells were seeded in 96-well plates (Sarstedt) at 2,000 cells/well for Ben-Men-1 and RD cells, 30,000 cells/well for 697 and 697-R cells, and 4,000 cells/well for all other cell lines. The following day, cells were treated with various concentrations of each compound or and 0.05% of DMSO as the control for six days for MG-63 cells or three days for all remaining cell lines. Cell proliferation was assessed using resazurin assays and the IC50 value calculated. Cell cycle analysis was performed accordingly. Burns et al., Cancer Res., 73:792-803 (2013).
# To search for compounds with better drug-like properties, the inventors conducted a side-by-side comparison of ten rocaglates lacking the dioxanyl ring with silvestrol for growth-inhibitory activity in a panel of MPNST, schwannoma, and meningioma cell lines, which they had previously shown to be sensitive to the antiproliferative action of silvestrol. […] The average IC50 value of each rocaglate was determined by 3-day resazurin proliferation assays. […] Further structure and activity comparison discerned some positions on the cyclopenta[b]benzofuran scaffold that affected the antiproliferative activity of rocaglates.
# [2] = Maximum tolerated dose of Roc in mice; format: in vivo; settings: every other day
# rhabdomyosarcoma PDX = assay: Alveolar rhabdomyosarcoma PDX model (NCH-ARMS-2); format: in vivo, NSG mouse; settings: 3 mg/kg IP every other day
# Description: (§1) To generate PDX models, the Nationwide Children's Hospital Institutional Review Board approved the Human Subjects Protocol for the acquisition of surgically-removed tumor specimens from patients and informed patient consents were obtained. Shortly after resection, fresh tumor tissues with their histological types confirmed by a specialized pathologist were placed in Dulbecco's-modified Eagle (DME) medium (Invitrogen) and brought to the research laboratory. A piece of tumor fragment was implanted subcutaneously on the dorsal right flank area in an eight-to-ten week-old immunodeficient mouse under anesthesia. Tumors were allowed to grow until established, at which time the established PDX tumors were repeatedly passed from one animal to the next or cryopreserved. For Roc treatment, actively-growing PDXs for a Ewing sarcoma (NCH-EWS-2), an osteosarcoma (NCH—OS-7), and an alveolar rhabdomyosarcoma (NCH-ARMS-2) were excised and cut into 5-mm pieces. Each tumor piece was re-implanted into an NSG mouse and tumor growth was monitored. Once noted, the tumor sizes in the axial plane at its greatest dimension (L) and the orthogonal short dimension (S) were measured twice weekly using a Fowler Ultra-Cal Electronic Caliper. Approximated tumor volumes were calculated using the formula V=(L×S^2)/2. […]
# Ewing sarcoma PDX = Ewing sarcoma PDX model (NCH-EWS-2); format: in vivo, NSG mouse; settings: 3 mg/kg IP every other day, four weeks, vs vehicle
# Description: as §1
# [3] = tested on: TC32 Ewing sarcoma, 143B osteosarcoma, and RD rhabdomyosarcoma cells; assay: Western blots of treated sarcoma cells; format: cell-based
# Procedure: FIGS. 7A-7C provide images showing DDR and Roc reduce multiple signaling proteins important for the growth and survival of sarcoma cells. Lysates prepared from TC32 Ewing sarcoma (A), 143B osteosarcoma (B), and RD rhabdomyosarcoma (C) cells were treated 1 and 2 days with the indicated concentrations of DDR or Roc and analyzed by Western blotting for the expression of various oncogenic driver proteins. GAPDH was used as a loading control.
# Subconfluent cells were treated with the indicated doses of Roc or DDR for 24-72 hours and then harvested in cell lysis buffer (Cell Signaling Technology) containing 1 mM phenylmethylsufonylfluoride and protease inhibitor cocktail (Sigma-Aldrich). The protein content in cleared lysates was quantitated using the microBCA assay (ThermoFisher). Equal amounts of protein were run in sodium dodecyl sulfate-polyacrylamide gels and electrotransferred onto Immobilon-FL PVDF membranes (Millipore). The antibodies used were directed against: MDR1/ABCB1 (#13978), insulin-like growth factor-1 receptor β subunit (IGF-1Rβ; #9750), AKT (#9272), ERK1/2 (#4695), glyceraldehyde-3-phosphate dehydrogenase (GAPDH; #5174), caspase-3 (#9662), caspase-7 (#9492), cleaved caspase-7 (#9491), poly(ADP-ribose) polymerase (PARP; #9532), cleaved PARP (#5625), and phospho-histone H2A.X (pH2A.X[Ser′^39]; #9718; all from Cell Signaling Technology), NKX2.2 (sc-514161), LSD1 (sc-136174), and survivin (sc-17779; Santa Cruz Biotechnology), and FLI1 (ab15289) and cleaved caspase-3 (CC3; ab32042; Abeam). Protein bands were detected using IRDye® infrared fluorescent dye-labeled secondary antibodies and scanning on an Odyssey CLx imaging system (LI-COR Biosciences) using the appropriate fluorescent channel at a resolution of 84 μm.
# To further examine the molecular mechanisms underlying the antiproliferative effects of rocaglamides, the inventors treated TC32 Ewing sarcoma, 143B osteosarcoma, and RD rhabdomyosarcoma cells with 1- or 2-IC50 dose of DDR or rocaglamide for 1-2 days followed by Western blotting for several known drivers of cell survival and proliferation. […] They also observed reduction of the IGF-1Rβ levels in rocaglamide-treated MPNST cells. In addition, Roc and DDR decreased the levels of AKT, ERKs, cyclin D1 and survivin in treated TC32, 143B, and RD cells (FIG. 7). Intriguingly, the oncogenic fusion protein EWS-FLI1, which acts as an aberrant transcription factor in Ewing sarcoma, was not affected in Roc- and DDR-treated TC32 Ewing sarcoma cells (FIG. 7A). […] However, the expression of lysine demethylase 1 (LSD1), which modulates EWS-FLI1 transcriptional activity (Sankar et al., Oncogene, 32:5089-5100 (2013)), and NKX2.2, an EWS-FL11-regulated gene necessary for oncogenic transformation (Smith et al., Cancer Cell, 9:405-416 (2006)), were diminished by these rocaglamides in TC32 cells (FIG. 7A).
# osteosarcoma PDX = assay: Osteosarcoma PDX model (NCH-OS-7); format: in vivo, NSG mouse; settings: 3 mg/kg IP every other day
# Description: as §1
smiles,measurement,setting,value
"COc1ccc([C@@]23Oc4cc(OC)cc(OC)c4[C@]2(O)[C@H](O)[C@H](C(=O)N(C)C)[C@H]3c2ccccc2)cc1 [Roc, rocaglamide]",IC50 values relative to silvestrol,[1],slightly higher than silvestrol
same,maximum tolerated dose (MTD),[2]; IP,4 mg/kg
same,maximum tolerated dose (MTD),[2]; oral gavage,1.2 mg/kg
same,reduction of tumor growth,rhabdomyosarcoma PDX,~70%
same,tumor growth inhibition,Ewing sarcoma PDX,~90%
same,levels of the β subunit of IGF-1R,"[3]; 1- or 2-IC50 dose, 1-2 days, all three sarcoma cell lines",reliably reduced
same,"levels of AKT, ERKs, cyclin D1 and survivin","[3]; TC32, 143B, and RD cells, 1- or 2-IC50 dose, 1-2 days",decreased
same,EWS-FLI1 fusion protein level,[3]; TC32 Ewing sarcoma cells,not affected
same,expression of LSD1 and NKX2.2,[3]; TC32 cells,diminished
same,reduction of average tumor size compared to vehicle,osteosarcoma PDX,~80%
